Measured values published in patent US20240075004A1, “VERY-LONG-CHAIN POLYUNSATURATED FATTY ACIDS, ELOVANOID HYDROXYLATED DERIVATIVES, AND METHODS OF USE” (The Board of Supervisors of Louisiana State University and …, priority 2020, published 2024).

How the values were obtained:
[1] = tested on: autophagy, UPR, MMP, senescence and inflammation genes in HNEpC; assay: HNEpC challenged with HDM: gene expression; assay type: cell-based, human; settings: 500 nM; HDM 30 μg/ml
Protocol: HDM triggered multiple signaling in human nasal epithelial cells. HNEpC challenged with HDM (D. farinae+D. pteronyssinus) (30 μg/ml) induces the expression of several genes related with autophagy (ATG3, ATG5, ATG7, BECLIN-1, and P62), unfolded protein response (UPR) (ATF6, CHOP, and IRE1) and matrix metalloproteinases (MMPs) (MMP8, MMP2, MMP9, MMP3, MMP12, TIMP1, and TIMP2). HDM stressors also induce the expression of senescence (P21, P16, P27, and P53) and inflammation genes (IL-1a, IL-6, and IL-10) on HNEpC. […] (*p<0.0001).

IL6 = IL6 (marker of SASP) induced by IL1β in diabetic hypothalamus; assay type: cell-based; settings: diabetic db/db mice hypothalamus, different effects in female and male mice
TP53 and IL8 = assay: Human adipocytes treated with IL1β: TP53 and IL8 expression by Taqman Real time PCR; assay type: cell-based
Excerpt: A) experimental design. B) expression levels of TP53 and IL8 in human diabetic and non-diabetic adipocytes by the means of Tagman Real time PCR.

[2] = tested on: degenerating neurons of hypothalamus; assay: Fluoro-Jade B staining of organotypic slices of hypothalamus; assay type: cell-based; settings: 500 nM, 48 h incubation, adult obese diabetic db/db mice
Excerpt: Fluoro-Jade b (F-Jb) stains degenerating neurons.

[3] = tested on: IL-6, IL-1β, IL-8/CXCL8, CCL2/MCP-1, CXCL1/KC/GRO, VEGF, ICAM1(CD54), IL-10; assay: Sandwich ELISA of cytokines and chemokines in HNEpC challenged with stressors; assay type: cell-based, human; settings: allergens
Excerpt: • Lipopolysaccharide (LPS) from Escherichia coli serotype 0111:B4 (Catalog #L4391) were obtained from Sigma-Aldrich. LPS is the principal component of Gram-negative bacteria that activates the innate immune system through its recognition by Toll-like receptor 4 (TLR4). This leads to a signaling cascade that ultimately results in the activation of NF-κB and the production of proinflammatory cytokines. LPS we used for our experiments is a preparation of smooth (S)-form LPS purified from the Gram-negative E. coli 0111:B4 that was used at 30 μg/mL to challenge HNEpC. • Polyinosinic-polycytidylic acid (abbreviated as poly(I:C) or poly(rI):poly(rC)) is a synthetic analog of double-stranded viral RNA (dsRNA), a molecular pattern associated with viral infection such as loss of epithelial integrity, increased production of mucus and inflammatory cytokines. Poly(I:C), a TLR3 agonist activates the antiviral pattern recognition receptors TLR3, RIG-I/MDA5 and PKR, thereby inducing signaling via multiple inflammatory pathways, including NF-κB and IRF. High Molecular Weight Poly(I:C) comprises long strands of inosine poly(I) homopolymer annealed to strands of cytidine poly(C) homopolymer. The average size of Poly(I:C) HMW is from 1.5 kb to 8 kb. […]

Adiponectin = Adiponectin levels in diabetic hypothalamus and adipose tissue
[4] = tested on: pro-inflammatory transcriptome and pro-homeostatic pathways in RPE single-cells; assay: UOS transcriptome in RPE single-cells; assay type: cell-based; settings: 96 per sample
Excerpt: Dots in box plots represent expression of the gene for a single RPEC (total of 96 per sample). P<0.001 (***), P<0.01 (**), One-way Anova, with Post-Hoc Tukey HSD test for multiple comparisons.

SMILES | expression of MMP genes (MMP8, MMP2, MMP9, MMP3, MMP12, TIMP1, TIMP2) [1] | expression of inflammation / senescence-associated cytokine genes [1] | expression of senescence genes (P21, P16, P27; except P53) [1] | levels of IL6 (marker of SASP) (IL6) | IL8 brought down (elevated by IL1β) (TP53 and IL8; 500 nM, both diabetic and non-diabetic adipocytes) | levels of TP53 mRNA (TP53 and IL8; human adipocytes from diabetic patient treated with IL1β) | effect of IL1β (expression levels of TP53 and IL8) (TP53 and IL8; human diabetic adipocytes) | Fluoro-Jade b (F-Jb) signal (neuroprotection) [2] | allergen-triggered production of inflammatory cytokines, chemokines, ICAM1 and induction of autophagy and SASP [3] | adiponectin in subcutaneous adipose tissue (SAT) and visceral adipose tissue (VAT) (Adiponectin) | levels of Adiponectin (Adiponectin; ELV34 treatment) | adiponectin in diabetic hypothalamus (Adiponectin; female and males) | UOS up-regulation of pro-inflammatory transcriptome and down-regulation of pro-homeostatic pathways [4]
CC/C=C\C[C@H](O)\C=C/C=C/C=C/[C@H](O)C/C=C\C/C=C\CCCCCCCCCCCCCCC(=O)O [ELV-N-34] | inhibits these effects | inhibits these effects | inhibits these effects | reduced | around 40 folds | down to non-diabetic control levels | revert the effect | decrease of F-Jb signal | attenuated | Differential effect | increased | trend of increase | 
CC/C=C\C[C@H](O)\C=C/C=C/C=C/[C@H](O)C/C=C\C/C=C\CCCCCCCCCCCCC(=O)O [ELV-N-32] |  |  |  |  |  |  |  |  |  |  |  |  | suppress these changes
